The source made the active and inactive calls.

15 molecules from ChEMBL document CHEMBL4673231, “Novel isoniazid embedded triazole derivatives: Synthesis, antitubercular and antimicrobial activity evaluation” (Bioorg Med Chem Lett, 2020) can be followed below.

The subject of data set [1] is Saccharomyces cerevisiae. In words: Antifungal activity against Saccharomyces cerevisiae assessed as diameter of inhibition zone at 1 mg/ml incubated for 24 hrs by agar well diffusion assay. In kind it is functional. The following applies: for zone of inhibition at 1000 µg/mL: read-out: DIZ.
Data set [2] concerns Aspergillus niger. Briefly: Antifungal activity against Aspergillus niger assessed as diameter of inhibition zone at 1 mg/ml incubated for 24 hrs by agar well diffusion assay. The following applies: for zone of inhibition at 1000 µg/mL: read-out: DIZ. It counts as functional. On the technique in general: A growth-free zone around the sample is the usual read-out of agar diffusion tests.

For data set [3], the system named is Klebsiella aerogenes. Briefly: Antibacterial activity against Enterobacter aerogenes assessed as diameter of inhibition zone at 1 mg/ml incubated for 24 hrs by agar well diffusion assay. The settings on record: for zone of inhibition at 1000 µg/mL: read-out: DIZ. In kind it is functional.
Data set [4] has as its system Shigella boydii. Briefly: Antibacterial activity against Shigella boydii assessed as diameter of inhibition zone at 1 mg/ml incubated for 24 hrs by agar well diffusion assay. It counts as functional.
For data set [5], the system named is Bacillus subtilis. In words: Antibacterial activity against Bacillus subtilis assessed as diameter of inhibition zone at 1 mg/ml incubated for 24 hrs by agar well diffusion assay. It counts as functional. The following applies: for zone of inhibition at 1000 µg/mL: read-out: DIZ.
Data set [6] has as its system Salmonella typhi. Briefly: Antibacterial activity against Salmonella typhi assessed as diameter of inhibition zone at 1 mg/ml incubated for 24 hrs by agar well diffusion assay. In kind it is functional, Salmonella enterica subsp. enterica serovar Typhi. The settings on record: for zone of inhibition at 1000 µg/mL: Salmonella enterica, read-out: DIZ; for diameter of the inhibition zone (DIZ): Salmonella enterica subsp. enterica serovar Typhi.

The subject of data set [7] is Pseudomonas aeruginosa. Briefly: Antibacterial activity against Pseudomonas aeruginosa assessed as diameter of inhibition zone at 1 mg/ml incubated for 24 hrs by agar well diffusion assay. In kind it is functional. The settings on record: for zone of inhibition at 1000 µg/mL: read-out: DIZ.
In data set [8] the test system is Escherichia coli. Briefly: Antibacterial activity against Escherichia coli assessed as diameter of inhibition zone at 1 mg/ml incubated for 24 hrs by agar well diffusion assay. It counts as functional. The following applies: for zone of inhibition at 1000 µg/mL: read-out: DIZ.
Data set [9] relates to Salmonella enterica subsp. enterica serovar Abony. Briefly: Antibacterial activity against Salmonella enterica subsp. enterica serovar Abony assessed as diameter of inhibition zone at 1 mg/ml incubated for 24 hrs by agar well diffusion assay. In kind it is functional.
The subject of data set [10] is Staphylococcus aureus. In words: Antibacterial activity against Staphylococcus aureus assessed as diameter of inhibition zone at 1 mg/ml incubated for 24 hrs by agar well diffusion assay. It counts as functional.
The nature of data set [11]: Cytotoxicity against mouse RAW264.7 cells assessed as reduction in cell viability at 25 ug/ml incubated for 48 hrs by MTT assay. It counts as cell-based. The following applies: at 25 µg/mL, read-out: INH.
Data set [12] deals with Bacillus cereus. In words: Antibacterial activity against Bacillus cereus assessed as diameter of inhibition zone at 1 mg/ml incubated for 24 hrs by agar well diffusion assay. It counts as functional.
The test system of data set [13] is Mycobacterium tuberculosis. In words: Antimycobacterial activity against Mycobacterium tuberculosis H37Rv assessed as reduction in microbial growth incubated for 7 days by alamar blue assay. In kind it is functional. The following applies: 168 h, time 7 day.

On to `OC(Cn1cncn1)(Cn1cncn1)c1ccc(F)cc1F` [FLUCONAZOLE], for which the zone of inhibition at 1000 µg/mL in data set [1] and in data set [2] was 30 mm in each case.

As usually defined, the MIC is the smallest concentration in the dilution series that meets the test's criterion for growth inhibition. As for `Cc1cc(C)c(-n2cc(COc3ccc([N+](=O)[O-])cc3/C=N/NC(=O)c3ccncc3)nn2)c(C)c1`, the “diameter of the inhibition zone (DIZ)” value in data set [1], in data set [3], in data set [4], in data set [5], in data set [7] and in data set [8] was “inactive” each time. Besides, the “diameter of the inhibition zone (DIZ)” value in data set [9], in data set [10], in data set [2] and in data set [12] was “inactive” in each case. The zone of inhibition at 1000 µg/mL in data set [6] is 10 mm. Also, in [11], the cytotoxicity at 48 h, 25 ug/ml stood at 27.7%. For the same molecule, the minimal inhibitory concentration (MIC) in [13] came to 0.78 µg/mL.

As for `COc1cccc(-n2cc(COc3ccc([N+](=O)[O-])cc3/C=N/NC(=O)c3ccncc3)nn2)c1`, the “diameter of the inhibition zone (DIZ)” value in data set [1], in [4], in data set [10] and in data set [12] was “inactive” throughout. Also, the zone of inhibition at 1000 µg/mL in data set [3] came to 6 mm; in data set [5], 12 mm; in data set [6], 12 mm; in data set [7], 10 mm; in data set [8], 9 mm; in data set [9] (read-out: DIZ), 8 mm. Besides, the zone of inhibition at 1000 µg/mL in [2] came out at 13 mm. The cytotoxicity at 48 h, 25 ug/ml in [11] was 23.9%. Besides, the MIC in [13] was 0.78 µg/mL.

Turning to `Cc1ccc(-n2cc(COc3ccc([N+](=O)[O-])cc3/C=N/NC(=O)c3ccncc3)nn2)c(C)c1`, the “diameter of the inhibition zone (DIZ)” value in data set [1], in data set [3], in data set [4], in data set [5], in data set [7] and in data set [8] was “inactive” in each case. Moreover, the “diameter of the inhibition zone (DIZ)” value in [9], in [10], in data set [2] and in [12] was “inactive” each time. Also, the zone of inhibition at 1000 µg/mL in [6] was determined as 11 mm. Further, the cytotoxicity at 48 h, 25 ug/ml in [11] came out at 17.6%. In data set [13], the MIC is 3.12 µg/mL.

With `O=C(N/N=C/c1cc([N+](=O)[O-])ccc1OCc1cn(-c2ccccc2F)nn1)c1ccncc1`, the “diameter of the inhibition zone (DIZ)” value in data set [1], in data set [4], in [8], in [9], in [10] and in [2] was “inactive” each time. In addition, the “diameter of the inhibition zone (DIZ)” value in data set [12] was “inactive”. In addition, the zone of inhibition at 1000 µg/mL in data set [3] was 10 mm; in data set [5] it was 11 mm; in data set [6], 10 mm; in [7] it was 13 mm. Further, the cytotoxicity at 48 h, 25 ug/ml in [11] was 19.3%. The MIC in data set [13] was found to be 12.5 µg/mL.

As to `O=C(N/N=C/c1cc([N+](=O)[O-])ccc1OCc1cn(-c2cccc([N+](=O)[O-])c2)nn1)c1ccncc1`, the “diameter of the inhibition zone (DIZ)” value in data set [1], in data set [3], in data set [4], in data set [5], in [6] and in data set [7] was “inactive” in each case. Further, the “diameter of the inhibition zone (DIZ)” value in data set [8], in [9], in data set [10], in data set [2] and in data set [12] was “inactive” throughout. In data set [11], the cytotoxicity at 48 h, 25 ug/ml was found to be 22.7%. In addition, the minimum inhibitory concentration (MIC) in data set [13] turned out to be 0.78 µg/mL.

Consider `Cc1ccc([N+](=O)[O-])cc1-n1cc(COc2ccc([N+](=O)[O-])cc2/C=N/NC(=O)c2ccncc2)nn1`, for which the “diameter of the inhibition zone (DIZ)” value in [1], in data set [3], in [4], in data set [5], in data set [6] and in [9] was “inactive” throughout. Further, the “diameter of the inhibition zone (DIZ)” value in data set [10] and in data set [12] was “inactive” throughout. Also, the zone of inhibition at 1000 µg/mL in [7] was 9 mm; in data set [8] it was 12 mm; in [2] it was 13 mm. For the same molecule, in data set [11], the cytotoxicity at 48 h, 25 ug/ml stood at 23.9%. In addition, the MIC in data set [13] is 0.78 µg/mL.

`O=C(N/N=C/c1cc([N+](=O)[O-])ccc1OCc1cn(-c2ccccc2)nn1)c1ccncc1`: the zone of inhibition at 1000 µg/mL came to 10 mm in data set [1], 14 mm in data set [3], 13 mm in data set [7] and 12 mm in data set [8]. Further, the “diameter of the inhibition zone (DIZ)” value in data set [4], in data set [5], in [6], in data set [9], in [10] and in data set [2] was “inactive” in each case. In addition, in data set [12], the “diameter of the inhibition zone (DIZ)” value was “inactive”. Further, in data set [11], the cytotoxicity at 48 h, 25 ug/ml was 25.7%. The minimum inhibitory concentration (MIC) in data set [13] stood at 0.78 µg/mL.

As to `CCc1ccc(-n2cc(COc3ccc([N+](=O)[O-])cc3/C=N/NC(=O)c3ccncc3)nn2)cc1`, the “diameter of the inhibition zone (DIZ)” value in data set [1], in [3], in [4], in [5], in [6] and in [9] was “inactive” each time. The “diameter of the inhibition zone (DIZ)” value in data set [10] and in data set [12] was “inactive” in each case. The zone of inhibition at 1000 µg/mL in [7], in [8] and in [2] was 10 mm each time. The cytotoxicity at 48 h, 25 ug/ml in [11] was determined as 26.9%. In addition, the minimal inhibitory concentration (MIC) in data set [13] was found to be 0.78 µg/mL.

With `CO[C@H]1/C=C/O[C@@]2(C)Oc3c(C)c(O)c4c(O)c(c(/C=N/N5CCN(C)CC5)c(O)c4c3C2=O)NC(=O)/C(C)=C\C=C\[C@H](C)[C@H](O)[C@@H](C)[C@@H](O)[C@@H](C)[C@H](OC(C)=O)[C@@H]1C` [RIFAMPIN], in data set [13], the MIC came to 0.2 µg/mL.

As for `O=C(O)c1cn(C2CC2)c2cc(N3CCNCC3)c(F)cc2c1=O` [CIPROFLOXACIN], the minimum inhibitory concentration (MIC) in data set [13] came out at 1.56 µg/mL.

Turning to `O=C(N/N=C/c1cc([N+](=O)[O-])ccc1OCc1cn(-c2ccc(Br)cc2)nn1)c1ccncc1`, the zone of inhibition at 1000 µg/mL in data set [1] was found to be 12 mm; in data set [3] it was 12 mm; in [6], 10 mm. The “diameter of the inhibition zone (DIZ)” value in [4], in data set [5], in data set [7], in data set [8], in data set [9] and in data set [10] was “inactive” throughout. Further, the “diameter of the inhibition zone (DIZ)” value in data set [2] and in [12] was “inactive” throughout. Moreover, the cytotoxicity at 48 h, 25 ug/ml in data set [11] came out at 19%. Further, the minimum inhibitory concentration (MIC) in data set [13] amounted to 12.5 µg/mL.

`CC[C@@H](CO)NCCN[C@@H](CC)CO` [ETHAMBUTOL]: the minimal inhibitory concentration (MIC) in data set [13] is 3.12 µg/mL.

Consider `NNC(=O)c1ccncc1` [ISONIAZID], for which the minimum inhibitory concentration (MIC) in data set [13] stood at 0.1 µg/mL.

Turning to `O=C(N/N=C/c1cc([N+](=O)[O-])ccc1OCc1cn(-c2ccc(Cl)cc2)nn1)c1ccncc1`, the zone of inhibition at 1000 µg/mL in data set [1] was found to be 10 mm; in data set [6], 13 mm; in data set [7], 15 mm; in data set [2], 16 mm. The “diameter of the inhibition zone (DIZ)” value in data set [3], in [4], in data set [5], in [8], in data set [9] and in data set [10] was “inactive” in each case. In addition, the “diameter of the inhibition zone (DIZ)” value in data set [12] is “inactive”. In data set [13], the MIC was 25 µg/mL.
